Tests used:
Assay type in all cases: physicochemical
[1] = Thermal stability, MIL as GC stationary phase with FID; details: exponential increase in response beyond 2,000 pA
Protocol: (§1) The thermal stability of MILs was measured from 40 to 350° C. at a ramp rate of 5° C. min^−1 by performing thermogravimetric analysis (TGA) using a NETZSCH STA 449 F1 Jupiter thermal analyzer (Selb, Germany). To further investigate the thermal stability of MILs using a more sensitive technique, the solvents were employed as a gas chromatographic (GC) stationary phase and subjected to an oven temperature program from 40 to 200° C. at a ramp rate of 1° C. min^−1 and decomposition/degradation products detected using an ultra-sensitive flame ionization detector (FID), with all measurements being performed on an Agilent Technologies 7890B gas chromatograph (Santa Clara, CA, USA).
To further investigate the thermal stability of MILs using a more sensitive technique, the solvents were employed as a gas chromatographic (GC) stationary phase and subjected to an oven temperature program from 40 to 200° C. at a ramp rate of 1° C. min^−1 and decomposition/degradation products detected using an ultra-sensitive flame ionization detector (FID).

[2] = Effective magnetic moment from magnetic susceptibility balance (MSB); details: per formula unit
Protocol: Magnetic properties were analyzed using a magnetic susceptibility balance (MSB, Sherwood Scientific, Cambridge, UK) and a Quantum Design Superconducting Quantum Interference Device (SQUID) magnetometer (MPMS XL-7). The magnetic properties of transition metal MILs were further studied using a SQUID magnetometer to confirm their paramagnetic nature as well as if any magnetic transition occurs in the samples.
Magnetic susceptibility (XM) was calculated through Equation (1).
Effective magnetic moment (μeff) was calculated through Equation (2). In Equation (2), T represents the temperature at which the magnetic susceptibility measurements were conducted.
15 MILs incorporating rare-earth and transition metals were examined using a magnetic susceptibility balance (MSB).

[3] = Viscosity, Brookfield DVI cone and plate viscometer; details: 21.7° C.; neat MIL dried 48 hours under vacuum
Protocol: A Brookfield DVI cone and plate viscometer equipped with a CPA-51Z cone spindle was employed to obtain viscosity measurements at […] using approximately 0.5 g of each MIL after extensive drying for 48 hours under vacuum. Viscosity measurements were conducted at 21.7° C. for 15 lanthanide and transition metal MILs examined in this study.
Viscosity measurements were conducted at 21.7° C. for 15 lanthanide and transition metal MILs examined in this study.

[4] = Solubility of MILs in organic solvents and water
Excerpt: The solubility of lanthanide and transition metal MILs was investigated in popular traditional organic solvents. […]
The solubility of lanthanide and transition metal MILs was investigated in popular traditional organic solvents.

[5] = Thermal stability by thermogravimetric analysis (TGA); details: TGA at 10% weight loss
Protocol: as §1
Volitization/degradation of MILs as a function of temperature were measured using thermogravimetric analysis. The thermal stability of magnetic ionic liquids was measured from 40 to 350° C. at a ramp rate of 5° C. min^−1 by performing thermogravimetric analysis (TGA) using a NETZSCH STA 449 F1 Jupiter thermal analyzer (Selb, Germany).
To investigate the ability of DGE-based MILs to withstand elevated temperatures without undergoing degradation/decomposition, their thermal stabilities were investigated using thermogravimetric analysis (TGA). FIG. 13 through FIG. 27 display thermograms for MILs 1 to 15. The thermogram results are summarized in greater detail in the following paragraphs.

[6] = acetone, chloroform, dichloromethane, acetonitrile, methanol, ethanol, diethyl ether, ethyl acetate, isopropanol at 20% (w/v)
[7] = hexane, heptane, benzene, toluene at 10% (w/v)
[8] = hexane, heptane, benzene, toluene at 20% (w/v)
[9] = twelve organic solvents (without acetonitrile) at 50% (w/v)

CCCCCCCCOC(=O)COCC(=O)OCCCCCCCC.CCCCCCCCOC(=O)COCC(=O)OCCCCCCCC.CCCCCCCCOC(=O)COCC(=O)OCCCCCCCC.CCCCCCCCOC(=O)COCC(=O)OCCCCCCCC.CCCCCCCCOC(=O)COCC(=O)OCCCCCCCC.CCCCCCCCOC(=O)COCC(=O)OCCCCCCCC.O=C(C=C([O-])C(F)(F)F)C(F)(F)F.O=C(C=C([O-])C(F)(F)F)C(F)(F)F.O=C(C=C([O-])C(F)(F)F)C(F)(F)F.O=C(C=C([O-])C(F)(F)F)C(F)(F)F.O=C(C=C([O-])C(F)(F)F)C(F)(F)F.O=C(C=C([O-])C(F)(F)F)C(F)(F)F.[Ni+2].[Ni+2].[Ni+2] [compound 5]
Onset of MIL volatilization (° C.)^1 [1]: 190 °C | μeff, effective magnetic moment [2]: 5.33 μB | Viscosity (cP) [3]: 119.1 cP | Solubility [4, 6]: S^b (soluble in acetone, chloroform, dichloromethane, acetonitrile, methanol, ethanol, diethyl ether, ethyl acetate, and isopropanol at 20% (w/v).) | Solubility [4, 7]: S^a (soluble in hexane, heptane, benzene, and toluene at 10% (w/v).) | Solubility [4, 8]: S^c (soluble in hexane, heptane, benzene, and toluene at 20% (w/v).) | Solubility [4, 9]: S^d (soluble in acetone, chloroform, dichloromethane, methanol, ethanol, diethyl ether, ethyl acetate, isopropanol hexane, heptane, benzene, and toluene at 50% (w/v).) | Solubility ([4]; water at 0.01% (w/v)): S^f (insoluble in water at 0.01% (w/v).) | Onset of MIL volatilization (° C.)^2 [5]: 264.4 °C

CCCCCCOC(=O)COCC(=O)OCCCCCC.CCCCCCOC(=O)COCC(=O)OCCCCCC.CCCCCCOC(=O)COCC(=O)OCCCCCC.CCCCCCOC(=O)COCC(=O)OCCCCCC.CCCCCCOC(=O)COCC(=O)OCCCCCC.CCCCCCOC(=O)COCC(=O)OCCCCCC.O=C(C=C([O-])C(F)(F)F)C(F)(F)F.O=C(C=C([O-])C(F)(F)F)C(F)(F)F.O=C(C=C([O-])C(F)(F)F)C(F)(F)F.O=C(C=C([O-])C(F)(F)F)C(F)(F)F.O=C(C=C([O-])C(F)(F)F)C(F)(F)F.O=C(C=C([O-])C(F)(F)F)C(F)(F)F.[Ni+2].[Ni+2].[Ni+2] [compound 2]
Onset of MIL volatilization (° C.)^1 [1]: 166 °C | μeff, effective magnetic moment [2]: 5.48 μB | Viscosity (cP) [3]: 248.6 cP | Solubility [4, 6]: S^b (soluble in acetone, chloroform, dichloromethane, acetonitrile, methanol, ethanol, diethyl ether, ethyl acetate, and isopropanol at 20% (w/v).) | Solubility ([4]; acetonitrile at 50% (w/v)): S^e (insoluble in acetonitrile at 50% (w/v).) | Solubility [4, 7]: S^a (soluble in hexane, heptane, benzene, and toluene at 10% (w/v).) | Solubility [4, 8]: S^c (soluble in hexane, heptane, benzene, and toluene at 20% (w/v).) | Solubility [4, 9]: S^d (soluble in acetone, chloroform, dichloromethane, methanol, ethanol, diethyl ether, ethyl acetate, isopropanol hexane, heptane, benzene, and toluene at 50% (w/v).) | Solubility ([4]; water at 0.01% (w/v)): S^f (insoluble in water at 0.01% (w/v).) | Onset of MIL volatilization (° C.)^2 [5]: 257.0 °C

O=C(C=C([O-])C(F)(F)F)C(F)(F)F.O=C(C=C([O-])C(F)(F)F)C(F)(F)F.O=C(C=C([O-])C(F)(F)F)C(F)(F)F.O=C(C=C([O-])C(F)(F)F)C(F)(F)F.O=C(C=C([O-])C(F)(F)F)C(F)(F)F.O=C(C=C([O-])C(F)(F)F)C(F)(F)F.O=C(COCC(=O)OC1CCCCC1)OC1CCCCC1.O=C(COCC(=O)OC1CCCCC1)OC1CCCCC1.O=C(COCC(=O)OC1CCCCC1)OC1CCCCC1.O=C(COCC(=O)OC1CCCCC1)OC1CCCCC1.O=C(COCC(=O)OC1CCCCC1)OC1CCCCC1.O=C(COCC(=O)OC1CCCCC1)OC1CCCCC1.[Mn+2].[Mn+2].[Mn+2] [compound 9]
Onset of MIL volatilization (° C.)^1 [1]: 159 °C | μeff, effective magnetic moment [2]: 9.96 μB | Viscosity (cP) [3]: 478.9 cP | Solubility [4, 6]: S^b (soluble in acetone, chloroform, dichloromethane, acetonitrile, methanol, ethanol, diethyl ether, ethyl acetate, and isopropanol at 20% (w/v).) | Solubility ([4]; acetonitrile at 50% (w/v)): S^e (insoluble in acetonitrile at 50% (w/v).) | Solubility [4, 7]: S^a (soluble in hexane, heptane, benzene, and toluene at 10% (w/v).) | Solubility [4, 8]: S^c (soluble in hexane, heptane, benzene, and toluene at 20% (w/v).) | Solubility [4, 9]: S^d (soluble in acetone, chloroform, dichloromethane, methanol, ethanol, diethyl ether, ethyl acetate, isopropanol hexane, heptane, benzene, and toluene at 50% (w/v).) | Solubility ([4]; water at 0.01% (w/v)): S^f (insoluble in water at 0.01% (w/v).) | Onset of MIL volatilization (° C.)^2 [5]: 176.9 °C

CCCCCCCCOC(=O)COCC(=O)OCCCCCCCC.CCCCCCCCOC(=O)COCC(=O)OCCCCCCCC.CCCCCCCCOC(=O)COCC(=O)OCCCCCCCC.CCCCCCCCOC(=O)COCC(=O)OCCCCCCCC.CCCCCCCCOC(=O)COCC(=O)OCCCCCCCC.CCCCCCCCOC(=O)COCC(=O)OCCCCCCCC.O=C(C=C([O-])C(F)(F)F)C(F)(F)F.O=C(C=C([O-])C(F)(F)F)C(F)(F)F.O=C(C=C([O-])C(F)(F)F)C(F)(F)F.O=C(C=C([O-])C(F)(F)F)C(F)(F)F.O=C(C=C([O-])C(F)(F)F)C(F)(F)F.O=C(C=C([O-])C(F)(F)F)C(F)(F)F.O=C(C=C([O-])C(F)(F)F)C(F)(F)F.O=C(C=C([O-])C(F)(F)F)C(F)(F)F.[Co+2].[Ho+3].[Ho+3] [compound 15]
Onset of MIL volatilization (° C.)^1 [1]: 115 °C | μeff, effective magnetic moment [2]: 15.56 μB | Viscosity (cP) [3]: 216.4 cP | Solubility [4, 6]: S^b (soluble in acetone, chloroform, dichloromethane, acetonitrile, methanol, ethanol, diethyl ether, ethyl acetate, and isopropanol at 20% (w/v).) | Solubility [4, 7]: S^a (soluble in hexane, heptane, benzene, and toluene at 10% (w/v).) | Solubility [4, 8]: S^c (soluble in hexane, heptane, benzene, and toluene at 20% (w/v).) | Solubility [4, 9]: S^d (soluble in acetone, chloroform, dichloromethane, methanol, ethanol, diethyl ether, ethyl acetate, isopropanol hexane, heptane, benzene, and toluene at 50% (w/v).) | Solubility ([4]; water at 0.01% (w/v)): S^f (insoluble in water at 0.01% (w/v).) | Onset of MIL volatilization (° C.)^2 [5]: 183.3 °C

O=C(C=C([O-])C(F)(F)F)C(F)(F)F.O=C(C=C([O-])C(F)(F)F)C(F)(F)F.O=C(C=C([O-])C(F)(F)F)C(F)(F)F.O=C(C=C([O-])C(F)(F)F)C(F)(F)F.O=C(C=C([O-])C(F)(F)F)C(F)(F)F.O=C(C=C([O-])C(F)(F)F)C(F)(F)F.O=C(COCC(=O)OC1CCCCC1)OC1CCCCC1.O=C(COCC(=O)OC1CCCCC1)OC1CCCCC1.O=C(COCC(=O)OC1CCCCC1)OC1CCCCC1.O=C(COCC(=O)OC1CCCCC1)OC1CCCCC1.O=C(COCC(=O)OC1CCCCC1)OC1CCCCC1.O=C(COCC(=O)OC1CCCCC1)OC1CCCCC1.[Ni+2].[Ni+2].[Ni+2] [compound 8]
Onset of MIL volatilization (° C.)^1 [1]: 154 °C | μeff, effective magnetic moment [2]: 5.53 μB | Viscosity (cP) [3]: 827.6 cP | Solubility [4, 6]: S^b (soluble in acetone, chloroform, dichloromethane, acetonitrile, methanol, ethanol, diethyl ether, ethyl acetate, and isopropanol at 20% (w/v).) | Solubility ([4]; acetonitrile at 50% (w/v)): S^e (insoluble in acetonitrile at 50% (w/v).) | Solubility [4, 7]: S^a (soluble in hexane, heptane, benzene, and toluene at 10% (w/v).) | Solubility [4, 8]: S^c (soluble in hexane, heptane, benzene, and toluene at 20% (w/v).) | Solubility [4, 9]: S^d (soluble in acetone, chloroform, dichloromethane, methanol, ethanol, diethyl ether, ethyl acetate, isopropanol hexane, heptane, benzene, and toluene at 50% (w/v).) | Solubility ([4]; water at 0.01% (w/v)): S^f (insoluble in water at 0.01% (w/v).) | Onset of MIL volatilization (° C.)^2 [5]: 182.2 °C
